Results: patent US8129367B2, “Compounds for the treatment of Hepatitis C” (Bristol-Myers Squibb Company, priority 2007, dated 2012)

Legend:
HCV replicon cells = experiment: HCV replicon FRET / luciferase assay; assay type: cell-based; details: Hepatitis C virus; 50% reduction in FRET or luciferase activity in HCV replicon cells
Description: FRET Assay Preparation. The HCV FRET screening assay was performed in 96-well cell culture plates. The FRET peptide (Anaspec, Inc.) (Taliani et al., Anal. Biochem. 1996, 240, 60-67) contains a fluorescence donor, EDANS, near one end of the peptide and an acceptor, DABCYL, near the other end. The fluorescence of the peptide is quenched by […] resonance energy transfer (RET) between the donor and the acceptor, but as the NS3 protease cleaves the peptide the products are released from RET quenching and the fluorescence of the donor becomes apparent. The assay reagent was made as follows: 5× cell Luciferase cell culture lysis reagent from Promega (#E153A) diluted to 1× with dH2O, NaCl added to 150 mM final, the FRET peptide diluted to 20 μM final from a 2 mM stock.
To prepare plates, HCV replicon cells, with or without a Renilla luciferase reporter gene, were trypsinized and plated in a 96-well plate with titrated test compounds added in columns 3 through 12; columns 1 and 2 contained a control compound (HCV control inhibitor), and the bottom row contained cells with DMSO only. The plates were then placed in a CO2 incubator at 37° C.
Assays. Subsequent to addition of the test compounds described above (FRET Assay Preparation), at various times the plate was removed and Alamar blue solution (Trek Diagnostics, #00-100) was added to measure cellular toxicity. After reading in a Cytoflour 4000 instrument (PE Biosystems), plates were rinsed with PBS and then used for FRET assay by the addition of 30 ul of the FRET peptide assay reagent described above (FRET Assay Preparation) per well. The plate was then placed into the Cytoflour 4000 instrument which had been set to 340 excite/490 emission, automatic mode for up to 20 cycles and the plate read in a kinetic mode. Typically, the signal to noise using an endpoint analysis after the reads was at least three-fold. Alternatively, after Alamar blue reading, plates were rinsed with PBS, then used for luciferase assay using the Promega Dual-Glo Luciferase Assay System or the Promega EnduRen Live Cell Substrate assay.
Compound analysis was performed by quantification of the relative HCV replicon inhibition and the relative cytotoxicity values. To calculate cytoxicity values, the average Alamar Blue fluorescence signals from the control wells were set as 100% non-toxic. The individual signals in each of the compound test wells were then divided by the average control signal and multiplied by 100% to determine […]. To calculate the HCV replicon inhibition values, an average background value was obtained from the two wells containing the highest amount of HCV control inhibitor at the end of the assay period. These numbers were similar to those obtained from naïve Huh-7 cells. The background numbers were then subtracted from the average signal obtained from the control wells and this number was used as 100% activity. The individual signals in each of the compound test wells were then divided by the averaged control values after background subtraction and multiplied by 100% to determine percent activity. EC50 values were calculated as the concentration which caused a 50% reduction in FRET or luciferase activity. The two numbers generated for the compound plate, percent cytoxicity and percent activity, were used to determine compounds of interest for further analysis.

HCV NS5B = target: T1, HCV NS5B (Hepatitis C virus genotype 1b, UniProt Q9WMX2); experiment: HCV NS5B RdRp enzyme assay; assay type: biochemical; details: HCV NS5B RdRp genotype 1b enzyme
T1 construct: The protein was expressed with an 18 amino acid C-terminal truncation to enhance the solubility; made in house; host or cells: E. coli BL21(DE3)
Description: HCV NS5B RdRp cloning, expression, and purification. The cDNA encoding the NS5B protein of HCV, genotype 1b, was cloned into the pET21a expression vector. The protein was expressed with an 18 amino acid C-terminal truncation to enhance the solubility. The E. coli competent cell line BL21(DE3) was used for expression of the protein. Cultures were grown at 37° C. for ˜4 hours until the cultures reached an optical density of 2.0 at 600 nm. The cultures were cooled to 20° C. and induced with 1 mM IPTG. Fresh ampicillin was added to a final concentration of 50 μg/ml and the cells were grown overnight at 20° C.
Cell pellets (3 L) were lysed for purification to yield 15-24 mgs of purified NS5B. The lysis buffer consisted of 20 mM Tris-HCl, pH 7.4, 500 mM NaCl, 0.5% triton X-100, 1 mM DTT, 1 mM EDTA, 20% glycerol, 0.5 mg/ml lysozyme, 10 mM MgCl2, 15 ug/ml deoxyribonuclease I, and Complete™ protease inhibitor tablets (Roche). After addition of the lysis buffer, frozen cell pellets were resuspended using a tissue homogenizer. To reduce the viscosity of the sample, aliquots of the lysate were sonicated on ice using a microtip attached to a Branson sonicator. The sonicated lysate was centrifuged at 100,000×g for 1 hr at 4° C. and filtered through a 0.2 μm filter unit (Corning).
The protein was purified using two sequential chromatography steps: Heparin sepharose CL-6B and polyU sepharose 4B (Pharmacia). The chromatography buffers were identical to the lysis buffer but contained no lysozyme, deoxyribonuclease I, MgCl2 or protease inhibitor and the NaCl concentration of the buffer was adjusted according to the requirements for charging the protein onto the column. Each column was eluted with a NaCl gradient which varied in length from 5-50 column volumes depending on the column type. After the final chromatography step, the resulting purity of the enzyme is >90% based on SDS-PAGE analysis. The enzyme was aliquoted and stored at −80° C.
Standard HCV NS5B RdRp enzyme assay. HCV RdRp genotype 1b assays were run in a final volume of 60 μl in 96 well plates (Corning 3600). The assay buffer is composed of 20 mM Hepes, pH 7.5, 2.5 mM KCl, 2.5 mM MgCl2, 1 mM DTT, 1.6 U RNAse inhibitor (Promega N2515), 0.01 mg/ml BSA (Sigma B6917), and 2% glycerol. All compounds were serially diluted (3-fold) in DMSO and diluted further in water such that the final concentration of DMSO in the assay was 2%. HCV RdRp genotype 1b enzyme was used at a final concentration of 28 nM. A polyA template was used at 6 nM, and a biotinylated oligo-dT12 primer was used at 180 nM final concentration. Template was obtained commercially (Amersham 27-4110). Biotinylated primer was prepared by Sigma Genosys. 3H-UTP was used at 0.6 μCi (0.29 μM total UTP). Reactions were initiated by the addition of enzyme, incubated at 30° C. for 60 min, and stopped by adding 25 μl of 50 mM EDTA containing SPA beads (4 μg/μl, Amersham RPNQ 0007). Plates were read on a Packard Top Count NXT after >1 hr incubation at room temperature.
Modified HCV NS5B RdRp enzyme assay. A modified enzyme assay was performed essentially as described for the standard enzyme assay except for the following: The biotinylated oligo dT12 primer was precaptured on streptavidin-coated SPA beads by mixing primer and beads in assay buffer and incubating at room temperature for one hour. Unbound primer was removed after centrifugation. The primer-bound beads were resuspended in 20 mM Hepes buffer, pH 7.5 and used in the assay at final concentrations of 20 nM primer and 0.67 μg/μl beads. Order of addition in the assay: enzyme (1.75 nM) was added to diluted compound followed by the addition of a mixture of template (0.36 nM), 3H-UTP (0.6 μCi, 0.29 μM), and primer-bound beads, to initiate the reaction; concentrations given are final. Reactions were allowed to proceed for 4 hours at 30° C.
IC50 values for compounds were determined using seven different [I]. […]

T1 sequence (Q9WMX2 2420-2992): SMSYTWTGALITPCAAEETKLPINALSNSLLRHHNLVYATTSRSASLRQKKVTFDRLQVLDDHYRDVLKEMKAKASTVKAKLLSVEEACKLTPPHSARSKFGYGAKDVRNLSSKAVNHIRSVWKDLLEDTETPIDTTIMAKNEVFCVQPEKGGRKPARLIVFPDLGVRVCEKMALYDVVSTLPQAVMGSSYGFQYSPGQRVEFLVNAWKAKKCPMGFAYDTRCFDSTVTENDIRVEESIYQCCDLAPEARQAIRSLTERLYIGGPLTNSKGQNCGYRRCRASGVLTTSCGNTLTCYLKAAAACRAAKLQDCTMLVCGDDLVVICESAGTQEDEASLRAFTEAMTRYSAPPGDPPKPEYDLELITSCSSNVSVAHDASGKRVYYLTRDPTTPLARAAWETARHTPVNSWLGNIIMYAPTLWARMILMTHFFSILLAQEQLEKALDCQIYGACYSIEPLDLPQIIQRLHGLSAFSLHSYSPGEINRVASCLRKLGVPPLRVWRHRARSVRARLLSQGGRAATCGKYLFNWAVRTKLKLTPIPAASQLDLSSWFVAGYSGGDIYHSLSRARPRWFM

SMILES	EC50 (HCV replicon cells)	IC50 (HCV NS5B)
COc1ccc2c(c1)C1CC1(C(=O)N1C3CCC1CN(C)C3)Cn1c-2c(C2CCCCC2)c2ccc(C(=O)NC(C)(C)C(=O)N(C)C)cc21 (stereo not drawn)	4.2 to 500 nM	4.2 to 500 nM
COc1ccc2c(c1)C1CC1(C(=O)N1C3CCC1CN(C)C3)Cn1c-2c(C2CCCCC2)c2ccc(C(=O)NS(=O)(=O)C3(Cc4ccccc4)CC3)cc21 (stereo not drawn)	4.2 to 500 nM	4.2 to 500 nM
CCC#CCC1(S(=O)(=O)NC(=O)c2ccc3c(C4CCCCC4)c4n(c3c2)CC2(C(=O)N3C5CCC3CN(C)C5)CC2c2cc(OC)ccc2-4)CC1 (stereo not drawn)	4.2 to 500 nM	4.2 to 500 nM
COc1ccc2c(c1)C1CC1(C(=O)N1C3CCC1CN(C)C3)Cn1c-2c(C2CCCCC2)c2ccc(C(=O)NS(=O)(=O)C3([Si](C)(C)C)CC3)cc21 (stereo not drawn)	4.2 to 500 nM	4.2 to 500 nM
COc1ccc2c(c1)C1CC1(C(=O)N1C3CCC1CN(C)C3)Cn1c-2c(C2CCCCC2)c2ccc(C(=O)NS(=O)(=O)C3(C(=O)c4ccccc4)CC3)cc21 (stereo not drawn)	4.2 to 500 nM	4.2 to 500 nM
COc1ccc2c(c1)C1CC1(C(=O)N1C3CCC1CN(C)C3)Cn1c-2c(C2CCCCC2)c2ccc(C(=O)NS(=O)(=O)c3ccccc3C#N)cc21 (stereo not drawn)	4.2 to 500 nM	4.2 to 500 nM
COCCS(=O)(=O)NC(=O)c1ccc2c(C3CCCCC3)c3n(c2c1)CC1(C(=O)N2C4CCC2CN(C)C4)CC1c1cc(OC)ccc1-3 (stereo not drawn)	4.2 to 500 nM	4.2 to 500 nM
COc1ccc2c(c1)C1CC1(C(=O)N1C3CCC1CN(C)C3)Cn1c-2c(C2CCCCC2)c2ccc(C(=O)NS(=O)(=O)c3ccco3)cc21 (stereo not drawn)	4.2 to 500 nM	4.2 to 500 nM
COc1ccc2c(c1)C1CC1(C(=O)N1C3CCC1CN(C)C3)Cn1c-2c(C2CCCCC2)c2ccc(C(=O)NS(=O)(=O)C3(C(=O)Nc4ccccc4)CC3)cc21 (stereo not drawn)	4.2 to 500 nM	4.2 to 500 nM
COc1ccc2c(c1)C1CC1(C(=O)N1C3CCC1CN(C)C3)Cn1c-2c(C2CCCCC2)c2ccc(C(=O)NS(=O)(=O)c3c(C)noc3C)cc21 (stereo not drawn)	4.2 to 500 nM	4.2 to 500 nM
COc1ccc2c(c1)C1CC1(C(=O)N1C3CCC1CN(C)C3)Cn1c-2c(C2CCCCC2)c2ccc(C(=O)NS(=O)(=O)c3cn(C)cn3)cc21 (stereo not drawn)	4.2 to 500 nM	4.2 to 500 nM
COc1ccc2c(c1)C1CC1(C(=O)N1C3CCC1CN(C)C3)Cn1c-2c(C2CCCCC2)c2ccc(C(=O)NS(=O)(=O)c3ccc(C)cn3)cc21 (stereo not drawn)	4.2 to 500 nM	4.2 to 500 nM
COc1ccc2c(c1)C1CC1(C(=O)N1C3CCC1CN(C)C3)Cn1c-2c(C2CCCCC2)c2ccc(C(=O)NS(=O)(=O)c3ccccc3)cc21 (stereo not drawn)	4.2 to 500 nM	4.2 to 500 nM
COc1ccc2c(c1)C1CC1(C(=O)N1C3CCC1CN(C)C3)Cn1c-2c(C2CCCCC2)c2ccc(C(=O)NS(=O)(=O)c3cnccc3Cl)cc21 (stereo not drawn)	4.2 to 500 nM	4.2 to 500 nM
C=CCC1(S(=O)(=O)NC(=O)c2ccc3c(C4CCCCC4)c4n(c3c2)CC2(C(=O)N3C5CCC3CN(C)C5)CC2c2cc(OC)ccc2-4)CC1 (stereo not drawn)	4.2 to 500 nM	4.2 to 500 nM
COc1ccc2c(c1)C1CC1(C(=O)N1C3CCC1CN(C)C3)Cn1c-2c(C2CCCCC2)c2ccc(C(=O)NS(=O)(=O)c3cccs3)cc21 (stereo not drawn)	4.2 to 500 nM	4.2 to 500 nM
COc1ccc2c(c1)C1CC1(C(=O)N1C3CCC1CN(C)C3)Cn1c-2c(C2CCCCC2)c2ccc(C(=O)NS(=O)(=O)CC3CCCO3)cc21 (stereo not drawn)	4.2 to 500 nM	4.2 to 500 nM
COc1ccc2c(c1)C1CC1(C(=O)N1C3CCC1CN(C)C3)Cn1c-2c(C2CCCCC2)c2ccc(C(=O)NS(=O)(=O)C3CCOCC3)cc21 (stereo not drawn)	4.2 to 500 nM	4.2 to 500 nM
COc1ccc2c(c1)C1CC1(C(=O)N1C3CCC1CN(C)C3)Cn1c-2c(C2CCCCC2)c2ccc(C(=O)NS(=O)(=O)Cc3ccccc3)cc21 (stereo not drawn)	4.2 to 500 nM	4.2 to 500 nM
COc1ccc2c(c1)C1CC1(C(=O)N1C3CCC1CN(C)C3)Cn1c-2c(C2CCCCC2)c2ccc(C(=O)NS(=O)(=O)N3CCCO3)cc21 (stereo not drawn)	< 70 nM	4.2 to 500 nM
COc1ccc2c(c1)C1CC1(C(=O)N1C3CCC1CN(C)C3)Cn1c-2c(C2CCCCC2)c2ccc(C(=O)NS(=O)(=O)c3ccc(C)cc3OC)cc21 (stereo not drawn)	4.2 to 500 nM	4.2 to 500 nM
COc1ccc2c(c1)C1CC1(C(=O)N1C3CCC1CN(C)C3)Cn1c-2c(C2CCCCC2)c2ccc(C(=O)NS(=O)(=O)c3nc(C(C)(C)C)cs3)cc21 (stereo not drawn)	4.2 to 500 nM	4.2 to 500 nM
COc1ccc2c(c1)C1CC1(C(=O)N1C3CCC1CN(C)C3)Cn1c-2c(C2CCCCC2)c2ccc(C(=O)NS(=O)(=O)C3(C)CC3)cc21 (stereo not drawn)	4.2 to 500 nM	4.2 to 500 nM
C=C(C)S(=O)(=O)NC(=O)c1ccc2c(C3CCCCC3)c3n(c2c1)CC1(C(=O)N2C4CCC2CN(C)C4)CC1c1cc(OC)ccc1-3 (stereo not drawn)	4.2 to 500 nM	4.2 to 500 nM
